# Where “and” joins values, the source holds several entries; their conditions need not be identical. Identical values can stand only once.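 Values below derive from 48-hour exposures of cells grown in 96-well plates, with endpoints linearly interpolated between the two concentrations bracketing the appropriate inhibition level. Abbreviation: GI50, concentration required for 50% inhibition of growth. TGI: total growth inhibition.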
# Tests used:
# Assay in all cases: NCI anticancer screen, dose series, 48 h
# A549 NSCLC = test system: A549 NSCLC
# DU-145 prostate = test system: DU-145 prostate
# EKVX NSCLC = test system: EKVX NSCLC
# HCC-2998 colon = test system: HCC-2998 colon
# HCT-15 colon = test system: HCT-15 colon
# NCI-H522 lung = test system: NCI-H522 lung
# OVCAR-4 ovarian = test system: OVCAR-4 ovarian
# OVCAR-5 ovarian = test system: OVCAR-5 ovarian
# RPMI-8226 leukemia = test system: RPMI-8226 leukemia
# SN12C renal = test system: SN12C renal
Compound,GI50 (A549 NSCLC) [µM],TGI (A549 NSCLC) [µM],GI50 (DU-145 prostate),TGI (DU-145 prostate),GI50 (EKVX NSCLC) [µM],TGI (EKVX NSCLC) [µM],GI50 (HCC-2998 colon) [µM],TGI (HCC-2998 colon) [µM],GI50 (HCT-15 colon) [µM],TGI (HCT-15 colon) [µM],GI50 (NCI-H522 lung) [µM],TGI (NCI-H522 lung) [µM],GI50 (OVCAR-4 ovarian) [µM],TGI (OVCAR-4 ovarian) [µM],GI50 (OVCAR-5 ovarian) [µM],TGI (OVCAR-5 ovarian) [µM],GI50 (RPMI-8226 leukemia) [µM],TGI (RPMI-8226 leukemia) [µM],GI50 (SN12C renal),TGI (SN12C renal)
Cc1cn2c(=O)n(c1=O)Cc1ccccc1C2,> 100,> 100,> 100 µM,> 100 µM,> 100,> 100,> 100,> 100,> 100,> 100,43.4,> 100,> 100,> 100,> 100,> 100,28.3,> 100,> 100 µM,> 100 µM
COc1ccc2c(c1)C(=O)c1c-2n(CCCN2CCOCC2)c(=O)c2cc([N+](=O)[O-])ccc12,< 0.01,3.01,< 0.01 µM,0.0106 µM,0.068,12,< 0.01,0.153,< 0.0151,13.3,< 0.01,,< 0.0264,6.55,< 0.01,0.889,< 0.01,0.147,< 0.01 µM,19.4 µM
Oc1ccc(CN(Cc2ccc(C(F)(F)F)cc2)Cc2ccc(O)c3ncccc23)c2cccnc12,0.0349,> 100,0.0338 µM,> 100 µM,0.0482,> 100,0.0496,> 100,0.024,> 100,0.0218,0.588,0.0429,> 100,0.0736,> 100,0.0278,> 100,0.0201 µM,> 100 µM
COc1cc2c(cc1OCCCN1CCN(c3cc(=O)oc4c(C)c(OC)ccc34)CC1)N=C[C@@H]1CCCN1C2=O,,,0.935 µM,> 100 µM,4.05,> 47.3,1.44,2.89,3.06,> 37.6,0.126,1.93,2,10.1,1.34,> 100,0.214,1.32,1.6 µM,6.51 µM
CCCCCCCCCCCCCCCCn1cc[n+](Cc2ccccc2)c1C,1.15,2.57,1.07 µM and 0.235 µM,2.3 µM and 1.05 µM,0.703,2.28,0.413,1.64,,,0.451,1.88,0.451,4.55,1.48,3.25,0.104,0.444,1.07 µM and 0.156 µM,2.34 µM and 1.17 µM
N/C(=N\c1nc2ccccc2s1)NC(=O)Nc1cccc2ccccc12,0.436,> 100,0.356 µM,4.2 µM,0.462,> 100,0.741,> 100,0.126,> 100,0.0775,,,,0.696,> 100,0.418,> 100,0.861 µM,> 100 µM
COc1ccc(-n2c3c(c4c(CN(C)C)c(O)c(C)cc42)CCc2ccccc2C3=O)cc1,55.6,> 100,21.4 µM,> 100 µM,44.5,> 100,23.4,67.8,28.7,> 100,13.4,50.7,,,35.2,> 100,15.5,47,29.6 µM,> 100 µM
CC(=O)OC12CC(C)C3(O)C4C=C(C)C(=O)[C@@]4(O)CC(CO)=C[C@H]3C1C2(C)C (stereo partly specified),,,> 1000 µM,> 1000 µM,> 1000,> 1000,2.35,,> 1000,> 1000,> 1000,> 1000,> 1000,> 1000,> 1000,> 1000,> 1000,> 1000,,
COc1ccc(-c2cc(-c3nnc(SCC(=O)Nc4ccc(C(C)=O)cc4)o3)c3ccccc3n2)cc1,> 100,> 100,> 100 µM,> 100 µM,> 100,> 100,> 100,> 100,> 100,> 100,30.2,> 100,,,> 100,> 100,> 100,> 100,> 100 µM,> 100 µM
Cc1cc(C)c2c(N)c3cccc(C)c3nc2n1,,,2.33 µM,6.5 µM,3.17,33.5,1.94,4.92,1.76,6.5,2.61,9.7,2.29,8.1,2.1,5.71,2.14,6.78,1.61 µM,11.2 µM
